Calls of active or inactive are those of the source. How the calls were made is not given here.
System: CCRIS mutagenicity, Ames/micronucleus/aberration tests
Assay: CCRIS mutagenicity studies
[1] = Test System: AMES SALMONELLA TYPHIMURIUM, Strain/Indicator: TA98, Metabolic Activation: NONE, Method: STANDARD PLATE
[2] = Test System: AMES SALMONELLA TYPHIMURIUM, Strain/Indicator: TA100, Metabolic Activation: NONE, Method: STANDARD PLATE
[3] = Test System: AMES SALMONELLA TYPHIMURIUM, Strain/Indicator: TA1535, Metabolic Activation: NONE, Method: STANDARD PLATE
[4] = Test System: AMES SALMONELLA TYPHIMURIUM, Strain/Indicator: TA1537, Metabolic Activation: NONE, Method: STANDARD PLATE
[5] = Test System: AMES SALMONELLA TYPHIMURIUM, Strain/Indicator: TA1538, Metabolic Activation: NONE, Method: STANDARD PLATE

Measured: mutagenic call

CCCCCCCCCCCCN=C(N)N
inactive: End Point: In vitro chromosomal aberrations, Test System: Cultured human (male) lymphocytes, Metabolic Activation: None inactive; negative | End Point: In vitro chromosomal aberrations, Test System: Cultured human (male) lymphocytes, Metabolic Activation: S-9 inactive; negative | End Point: In vivo micronucleus, Test System: Blood erythrocytes, Species: Mouse, Strain/Sex: ICR (male and female), 5-20/sex/dose, Route: Oral inactive; negative | End Point: In vivo micrunucleus, Test System: Bone marrow polychromatic erythrocytes, Species: Mouse, Strain/Sex: Males and females, Route: Oral inactive; negative | Test System: Ames Salmonella typhimurium, Strain/Indicator: TA98, Metabolic Activation: None, Method: Plate incorporation inactive; negative | Test System: Ames Salmonella typhimurium, Strain/Indicator: TA98, Metabolic Activation: Rat, Liver, S-9, Aroclor, Method: Plate incorporation inactive; negative | Test System: Ames Salmonella typhimurium, Strain/Indicator: TA100, Metabolic Activation: None, Method: Plate incorporation inactive; negative | Test System: Ames Salmonella typhimurium, Strain/Indicator: TA100, Metabolic Activation: Rat, Liver, S-9, Aroclor, Method: Plate incorporation inactive; negative | Test System: Ames Salmonella typhimurium, Strain/Indicator: TA1535, Metabolic Activation: None, Method: Plate incorporation inactive; negative | Test System: Ames Salmonella typhimurium, Strain/Indicator: TA1535, Metabolic Activation: Rat, Liver, S-9, Aroclor, Method: Plate incorporation inactive; negative | Test System: Ames Salmonella typhimurium, Strain/Indicator: TA1537, Metabolic Activation: None, Method: Plate incorporation inactive; negative | Test System: Ames Salmonella typhimurium, Strain/Indicator: TA1537, Metabolic Activation: Rat, Liver, S-9, Aroclor, Method: Plate incorporation inactive; negative | Test System: Chinese hamster ovary (CHO) cells, Strain/Indicator: CHO/6-Thioguanine, Metabolic Activation: None inactive; negative | Test System: Chinese hamster ovary (CHO) cells, Strain/Indicator: CHO/6-Thioguanine, Metabolic Activation: S-9 inactive; negative | Test System: E. coli, Strain/Indicator: WP2uvrA, Metabolic Activation: None, Method: Plate incorporation inactive; negative | Test System: E. coli, Strain/Indicator: WP2uvrA, Metabolic Activation: Rat, Liver, S-9, Method: Plate incorporation inactive; negative

CCCCCCCCCCCCOC(=O)CCSCCC(=O)OCCCCCCCCCCCC
inactive: [1] inactive; negative | Test System: AMES SALMONELLA TYPHIMURIUM, Strain/Indicator: TA98, Metabolic Activation: RAT, LIVER, S-9, AROCLOR 1254, Method: STANDARD PLATE inactive; negative | [2] inactive; negative | Test System: AMES SALMONELLA TYPHIMURIUM, Strain/Indicator: TA100, Metabolic Activation: RAT, LIVER, S-9, AROCLOR 1254, Method: STANDARD PLATE inactive; negative | [3] inactive; negative | Test System: AMES SALMONELLA TYPHIMURIUM, Strain/Indicator: TA1535, Metabolic Activation: RAT, LIVER, S-9, AROCLOR 1254, Method: STANDARD PLATE inactive; negative | [4] inactive; negative | Test System: AMES SALMONELLA TYPHIMURIUM, Strain/Indicator: TA1537, Metabolic Activation: RAT, LIVER, S-9, AROCLOR 1254, Method: STANDARD PLATE inactive; negative | [5] inactive; negative | Test System: AMES SALMONELLA TYPHIMURIUM, Strain/Indicator: TA1538, Metabolic Activation: RAT, LIVER, S-9, AROCLOR 1254, Method: STANDARD PLATE inactive; negative | Test System: E. COLI, Strain/Indicator: WP2, Metabolic Activation: NONE, Method: STANDARD PLATE inactive; negative | Test System: E. COLI, Strain/Indicator: WP2, Metabolic Activation: RAT, LIVER, S-9, AROCLOR 1254, Method: STANDARD PLATE inactive; negative

C[Si]1(C)O[Si](C)(C)O[Si](C)(C)O[Si](C)(C)O1
inactive: Test System: AMES SALMONELLA TYPHIMURIUM, Strain/Indicator: TA98, Metabolic Activation: NONE, Method: PREINCUBATION inactive; negative | [1] inactive; negative | Test System: AMES SALMONELLA TYPHIMURIUM, Strain/Indicator: TA98, Metabolic Activation: RAT LIVER S-9, AROCLOR 1254, Method: PREINCUBATION inactive; negative | Test System: AMES SALMONELLA TYPHIMURIUM, Strain/Indicator: TA98, Metabolic Activation: RAT LIVER S-9, AROCLOR 1254, Method: STANDARD PLATE inactive; negative | Test System: AMES SALMONELLA TYPHIMURIUM, Strain/Indicator: TA100, Metabolic Activation: NONE, Method: PREINCUBATION inactive; negative | [2] inactive; negative | Test System: AMES SALMONELLA TYPHIMURIUM, Strain/Indicator: TA100, Metabolic Activation: RAT LIVER S-9, AROCLOR 1254, Method: PREINCUBATION inactive; negative | Test System: AMES SALMONELLA TYPHIMURIUM, Strain/Indicator: TA100, Metabolic Activation: RAT LIVER S-9, AROCLOR 1254, Method: STANDARD PLATE inactive; negative | Test System: AMES SALMONELLA TYPHIMURIUM, Strain/Indicator: TA1535, Metabolic Activation: NONE, Method: PREINCUBATION inactive; negative | [3] inactive; negative | Test System: AMES SALMONELLA TYPHIMURIUM, Strain/Indicator: TA1535, Metabolic Activation: RAT LIVER S-9, AROCLOR 1254, Method: PREINCUBATION inactive; negative | Test System: AMES SALMONELLA TYPHIMURIUM, Strain/Indicator: TA1535, Metabolic Activation: RAT LIVER S-9, AROCLOR 1254, Method: STANDARD PLATE inactive; negative | Test System: AMES SALMONELLA TYPHIMURIUM, Strain/Indicator: TA1537, Metabolic Activation: NONE, Method: PREINCUBATION inactive; negative | [4] inactive; negative | Test System: AMES SALMONELLA TYPHIMURIUM, Strain/Indicator: TA1537, Metabolic Activation: RAT LIVER S-9, AROCLOR 1254, Method: PREINCUBATION inactive; negative | Test System: AMES SALMONELLA TYPHIMURIUM, Strain/Indicator: TA1537, Metabolic Activation: RAT LIVER S-9, AROCLOR 1254, Method: STANDARD PLATE inactive; negative | Test System: AMES SALMONELLA TYPHIMURIUM, Strain/Indicator: TA1538, Metabolic Activation: NONE, Method: PREINCUBATION inactive; negative | [5] inactive; negative | Test System: AMES SALMONELLA TYPHIMURIUM, Strain/Indicator: TA1538, Metabolic Activation: RAT LIVER S-9, AROCLOR 1254, Method: PREINCUBATION inactive; negative | Test System: AMES SALMONELLA TYPHIMURIUM, Strain/Indicator: TA1538, Metabolic Activation: RAT LIVER S-9, AROCLOR 1254, Method: STANDARD PLATE inactive; negative | Test System: E. COLI, Strain/Indicator: P3078 POLA, Metabolic Activation: NONE, Method: SPOT TEST inactive; negative | Test System: E. COLI, Strain/Indicator: P3078 POLA, Metabolic Activation: RAT LIVER S-9, AROCLOR 1254, Method: SPOT TEST inactive; negative | Test System: E. COLI, Strain/Indicator: W3110, Metabolic Activation: NONE, Method: SPOT TEST inactive; negative | Test System: E. COLI, Strain/Indicator: W3110, Metabolic Activation: RAT LIVER S-9, AROCLOR 1254, Method: SPOT TEST inactive; negative | Test System: MOUSE LYMPHOMA, Strain/Indicator: L5178Y (TK+/TK-), Metabolic Activation: NONE, Method: SUSPENSION/PLATE inactive; negative | Test System: MOUSE LYMPHOMA, Strain/Indicator: L5178Y (TK+/TK-), Metabolic Activation: RAT, LIVER, S-9, Method: SUSPENSION/PLATE inactive; negative | Test System: Mouse lymphoma, Strain/Indicator: L5178Y (tk+/tk-), Metabolic Activation: None, Method: Suspension/plate inactive; inconclusive (previous evaluation negative) | Test System: Mouse lymphoma, Strain/Indicator: L5178Y (tk+/tk-), Metabolic Activation: Rat, Liver, S-9, Aroclor 1254, Method: Suspension/plate inactive; negative

c1cnc2c(c1)[C@@H]1O[C@@H]1C1OC21 (stereo partly drawn)
inactive: [2] inactive; negative | Test System: AMES SALMONELLA TYPHIMURIUM, Strain/Indicator: TA100, Metabolic Activation: RAT, LIVER, S-9, AROCLOR 1254 (10% OR 20%), Method: STANDARD PLATE inactive; negative

From PubChem BioAssay AID1259407 (Chemical Carcinogenesis Research Information System (CCRIS), 2018)
